Laboratory results reported in PubChem BioAssay AID2055 (NMMLSC, 2009).

molecular target: Ras-related C3 botulinum toxin substrate 1 (Homo sapiens) (UniProt P63000); assay: blockers of fluorescent GTP loading onto wildtype Rac1 – biochemical, pyrazoline analogs, multiplex, flow cytometry, Ki, SAR follow-up (AID 2055); settings: Rac1-GST beads, Bodipy-FL-GTP binding, Ki calculated from EC50

Question: With `COc1ccc(C2CC(c3ccc(F)cc3)=NN2c2cc(Cl)ccc2Cl)cc1` (stereo unspecified) as the compound, how does the Ki read?
Answer: 10 nM

Question: How did the Ki turn out when `CN(C)c1ccc(C2CC(c3ccccc3)=NN2c2ccc([N+](=O)[O-])cc2)cc1` (stereo unspecified) was run?
Answer: 1900 nM

Question: `COc1ccc(C2CC(c3ccccc3)=NN2c2ccc(S(N)(=O)=O)cc2)cc1OC` (stereo unspecified) was tested. Which Ki did it give?
Answer: 1240 nM

Question: Which Ki does the source give for `Brc1ccc(N2N=C(c3ccccc3)CC2c2ccccc2)cc1` (stereo unspecified) here?
Answer: 890 nM

Question: `CC(=O)Oc1ccc(C2=NN(c3ccccc3)C(c3ccccc3)C2)cc1` (stereo unspecified) was tested. Which Ki did it give?
Answer: 530 nM

Question: For `O=C(O)c1ccc(N2N=C(c3ccccc3)CC2c2ccccc2)cc1` (stereo unspecified), which Ki is on record?
Answer: 5110 nM
